Results on 1 compound are retold here after article PMC5513091, “A novel Alzheimer’s disease drug candidate targeting inflammation and fatty acid metabolism” (Alzheimer's Research & Therapy, 2017).

As usually defined, the EC50 is the concentration at which the effect is half-maximal. Higher therefore signals weaker potency.

Bounds are passed on as bounds.

Data set [1] has as its system APPswe/PS1∆E9 transgenic mice. The experiment in a line: Two-day water maze. The following applies: AD mice fed 200 ppm in chow for 3 months from 10 months of age; day 2. The class given is in vivo. How it is done:
(§1) The APPswe/PS1∆E9-transgenic mice were characterized previously. Line 85 mice carry two transgenes, the mouse/human chimeric APPswe, linked to Swedish familial AD and human PS1∆E9. At 10 months of age, female transgenic mice were fed a defined diet (Harlan Teklad; Envigo, Indianapolis, IN, USA) with and without CAD-31 (200 ppm, approximately 10 mg/kg/day). Treatment continued for 3 months, followed by behavior testing and tissue harvesting.
Spatial memory was determined using the 2-day water maze with 13-month-old APPswe/PS1∆E9 transgenic mice fed CAD-31 for the previous 3 months. The protocol was adapted from a publication by Gulinello and colleagues. The goal platform was positioned 45 cm from the outside wall in the northwest quadrant of the maze. Day 1 involved training the mice (n = 10 per group) to find the platform using cues located around the pool within a 180-second time frame. This training involved a series of visible platform trials where mice were tracked using EthoVision software (Noldus Information Technology, Leesburg, VA, USA). […] The time it took each mouse to find the hidden platform was measured as escape latency. All trials were recorded using the EthoVision software, and statistics were computed using InStat software (GraphPad Software, La Jolla, CA, USA) by an individual blinded to the experiment.

Data set [2] deals with APPswe/PS1ΔE9 mice. Further details: method as in PMID 27149904. The following applies: old APPswe/PS1ΔE9 mice fed from an early age, preventive strategy; cited from earlier work.
The test system of data set [3] is APPswe/PS1∆E9 mice. The experiment in a line: Fear-conditioning assay. The following applies: AD mice fed 200 ppm in chow for 3 months from 10 months of age; day 2. It is filed as in vivo. How it is done: as §1
Fear conditioning to either a cue or a context represents a form of associative learning. The readout that is measured in contextual and cued fear conditioning is a freezing response that occurs following the pairing of an unconditioned stimulus, such as a foot shock, with a conditioned stimulus, such as a particular context or cue (tone). The mouse will freeze if it remembers and associates that environment with the aversive stimulus. The hippocampus and the amygdala are required for fear memory, where the hippocampus is involved in the formation and retrieval of context fear associations and the amygdala is involved in conditioning and recall of associations to contextual and discrete cues. […] On day 2, the time spent freezing is measured over the entire time in the chamber. […] The percentage of time spent freezing by each mouse is averaged per group, and then groups can be compared and p values calculated to determine statistical significance.

For data set [4], the target named is CYP 1A2 (Homo sapiens, UniProt P05177). As to the kind of experiment: CYP inhibition. The class given is in vitro ADME.
Sequence of CYP 1A2 (P05177 whole entry): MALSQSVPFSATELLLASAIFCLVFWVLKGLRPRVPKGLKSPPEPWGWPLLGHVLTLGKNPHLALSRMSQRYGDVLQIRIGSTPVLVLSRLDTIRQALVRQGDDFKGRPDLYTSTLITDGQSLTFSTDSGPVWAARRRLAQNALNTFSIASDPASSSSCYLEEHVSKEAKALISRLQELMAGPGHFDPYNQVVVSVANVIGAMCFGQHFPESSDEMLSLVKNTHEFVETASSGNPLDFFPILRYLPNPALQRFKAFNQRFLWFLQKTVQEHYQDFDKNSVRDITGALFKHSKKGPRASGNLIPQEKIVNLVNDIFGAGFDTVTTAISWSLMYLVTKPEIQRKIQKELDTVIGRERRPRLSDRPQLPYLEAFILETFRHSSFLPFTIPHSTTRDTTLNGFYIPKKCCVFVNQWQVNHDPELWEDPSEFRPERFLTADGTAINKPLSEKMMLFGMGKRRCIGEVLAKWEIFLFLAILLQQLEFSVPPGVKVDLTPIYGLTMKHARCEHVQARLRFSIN

As to `Cc1ccc(N(/N=C/c2cccc(OC(F)(F)F)c2)C(=O)C(F)(F)F)c(C)c1` [CAD-31], the “escape latency, hidden platform trial T1” value in data set [1] is on record as “significantly reduces the escape latency relative to AD mice to control levels”. Further, the “division of NPCs in the subventricular zone” value in data set [2] was “stimulates the division of NPCs in the subventricular zone”. Moreover, the “time freezing in response to the context” value in data set [3] is “more time freezing in response to the context”. Besides, the concentration giving a half-maximal response (EC50) at 10 µM in data set [4] was greater than 10 µM.
